Measured values reported in PubChem BioAssay AID2060611 (Molecular Pharmacology Branch, DTP, NCI, 2025).

System: 628569-122-R-J1-PDC complex spheroid viability
Test: Anticancer human tumor 628569-122-R-J1-PDC patient-derived head and neck squamous carcinoma cell line growth inhibition [CLK]
Details: for IC50: curve of first compound; for viability, T/C: stronger effect = lower value
How it was run: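 Multi-cell-type spheroids combined patient-derived tumor cells with HUVEC endothelial cells and human mesenchymal stem cells. Paired agents were dosed in half-log steps down from about clinical Cmax, or from 10 microM where Cmax was unknown.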
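Also: spheroids exposed to agents for seven days before readout.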
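For viability, T/C in this document: 100% = DMSO vehicle control viability.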

For `CC1COCCN1c1cc(C2(S(C)(=N)=O)CC2)nc(-c2ccnc3[nH]ccc23)n1` (centres undefined) + CN1CCN(c2cc(C(=O)Nc3cc4cc(-c5cnn(C)c5)ccc4cn3)ccn2)CC1, which IC50 (second compound 0.0316 µM) is on record?
The IC50 was 2.62 µM.

What about the IC50 (second compound 0.1 µM) of the same compound?
The IC50 was 1.42 µM.

And the IC50 (second compound 0.316 µM)?
The IC50 was less than 0.0316 µM.

What about the IC50 (second compound 1 µM) of the same compound?
The IC50 was less than 0.0316 µM.

What about the IC50 (second compound 3.16 µM) of the same compound?
The IC50 was less than 0.0316 µM.

And the IC50 (second compound 10 µM)?
The IC50 was less than 0.0316 µM.

What about the viability, T/C (second compound 0.0316 µM, first compound 0.0316 µM) of the same compound?
Its viability, T/C is 101%.

And the viability, T/C (second compound 0.0316 µM, first compound 0.1 µM)?
Its viability, T/C is 95.9%.

What about the viability, T/C (second compound 0.0316 µM, first compound 0.316 µM) of the same compound?
Its viability, T/C is 79.1%.

And the viability, T/C (second compound 0.0316 µM, first compound 1 µM)?
Its viability, T/C is 60.8%.

What about the viability, T/C (second compound 0.0316 µM, first compound 3.16 µM) of the same compound?
The viability, T/C was 45.9%.

And the viability, T/C (second compound 0.0316 µM, first compound 10 µM)?
Its viability, T/C is 46.1%.

What about the viability, T/C (second compound 0.1 µM, first compound 0.0316 µM) of the same compound?
Its viability, T/C is 68.2%.

And the viability, T/C (second compound 0.1 µM, first compound 0.1 µM)?
Its viability, T/C is 75.6%.

And the viability, T/C (second compound 0.1 µM, first compound 0.316 µM)?
The viability, T/C was 59%.

And the viability, T/C (second compound 0.1 µM, first compound 1 µM)?
Its viability, T/C is 53.6%.

And the viability, T/C (second compound 0.1 µM, first compound 3.16 µM)?
The viability, T/C was 45.4%.

And the viability, T/C (second compound 0.1 µM, first compound 10 µM)?
Its viability, T/C is 41.2%.

What about the viability, T/C (second compound 0.316 µM, first compound 0.0316 µM) of the same compound?
Its viability, T/C is 34.3%.

And the viability, T/C (second compound 0.316 µM, first compound 0.1 µM)?
The viability, T/C was 41.9%.

And the viability, T/C (second compound 0.316 µM, first compound 0.316 µM)?
The viability, T/C was 36%.

And the viability, T/C (second compound 0.316 µM, first compound 1 µM)?
The viability, T/C was 38.4%.

And the viability, T/C (second compound 0.316 µM, first compound 3.16 µM)?
Its viability, T/C is 27.2%.

And the viability, T/C (second compound 0.316 µM, first compound 10 µM)?
The viability, T/C was 24.7%.

And the viability, T/C (second compound 1 µM, first compound 0.0316 µM)?
Its viability, T/C is 9.71%.

And the viability, T/C (second compound 1 µM, first compound 0.1 µM)?
Its viability, T/C is 9.35%.

And the viability, T/C (second compound 1 µM, first compound 0.316 µM)?
Its viability, T/C is 7.68%.

And the viability, T/C (second compound 1 µM, first compound 1 µM)?
The viability, T/C was 7.29%.

And the viability, T/C (second compound 1 µM, first compound 3.16 µM)?
The viability, T/C was 7.44%.

What about the viability, T/C (second compound 1 µM, first compound 10 µM) of the same compound?
Its viability, T/C is 10.3%.

What about the viability, T/C (second compound 3.16 µM, first compound 0.0316 µM) of the same compound?
Its viability, T/C is 8.58%.

And the viability, T/C (second compound 3.16 µM, first compound 0.1 µM)?
Its viability, T/C is 5.23%.

What about the viability, T/C (second compound 3.16 µM, first compound 0.316 µM) of the same compound?
Its viability, T/C is 6.65%.

What about the viability, T/C (second compound 3.16 µM, first compound 1 µM) of the same compound?
Its viability, T/C is 9.55%.

What about the viability, T/C (second compound 3.16 µM, first compound 3.16 µM) of the same compound?
Its viability, T/C is 9.82%.

What about the viability, T/C (second compound 3.16 µM, first compound 10 µM) of the same compound?
Its viability, T/C is 9.3%.

And the viability, T/C (second compound 10 µM, first compound 0.0316 µM)?
The viability, T/C was 4.43%.

And the viability, T/C (second compound 10 µM, first compound 0.1 µM)?
The viability, T/C was 4.71%.

What about the viability, T/C (second compound 10 µM, first compound 0.316 µM) of the same compound?
Its viability, T/C is 5.12%.

And the viability, T/C (second compound 10 µM, first compound 1 µM)?
Its viability, T/C is 4.78%.

What about the viability, T/C (second compound 10 µM, first compound 3.16 µM) of the same compound?
Its viability, T/C is 4.88%.

What about the viability, T/C (second compound 10 µM, first compound 10 µM) of the same compound?
Its viability, T/C is 4.15%.

Which results are given for `NC(=O)C(=Cn1cnc(-c2cc(C(F)(F)F)cc(C(F)(F)F)c2)n1)c1cncnc1` + CN1CCN(c2cc(C(=O)Nc3cc4cc(-c5cnn(C)c5)ccc4cn3)ccn2)CC1?
IC50 (second compound 0.0316 µM): 0.681 µM; IC50 (second compound 0.1 µM): 0.0285 µM; IC50 (second compound 0.316 µM): < 0.00949 µM; IC50 (second compound 1 µM): < 0.00949 µM; IC50 (second compound 3.16 µM): < 0.00949 µM; IC50 (second compound 10 µM): < 0.00949 µM; viability, T/C (second compound 0.0316 µM, first compound 0.00949 µM): 79.3%; viability, T/C (second compound 0.0316 µM, first compound 0.03 µM): 67.5%; viability, T/C (second compound 0.0316 µM, first compound 0.0949 µM): 76%; viability, T/C (second compound 0.0316 µM, first compound 0.3 µM): 76.1%; viability, T/C (second compound 0.0316 µM, first compound 0.949 µM): 38.1%; viability, T/C (second compound 0.0316 µM, first compound 3 µM): 41.8%; viability, T/C (second compound 0.1 µM, first compound 0.00949 µM): 47.6%; viability, T/C (second compound 0.1 µM, first compound 0.03 µM): 53%; viability, T/C (second compound 0.1 µM, first compound 0.0949 µM): 47.4%; viability, T/C (second compound 0.1 µM, first compound 0.3 µM): 35%; viability, T/C (second compound 0.1 µM, first compound 0.949 µM): 22.3%; viability, T/C (second compound 0.1 µM, first compound 3 µM): 13.7%; viability, T/C (second compound 0.316 µM, first compound 0.00949 µM): 31.6%; viability, T/C (second compound 0.316 µM, first compound 0.03 µM): 22.2%; viability, T/C (second compound 0.316 µM, first compound 0.0949 µM): 8.26%; viability, T/C (second compound 0.316 µM, first compound 0.3 µM): 6.76%; viability, T/C (second compound 0.316 µM, first compound 0.949 µM): 4.81%; viability, T/C (second compound 0.316 µM, first compound 3 µM): 2.61%; viability, T/C (second compound 1 µM, first compound 0.00949 µM): 8.6%; viability, T/C (second compound 1 µM, first compound 0.03 µM): 7.83%; viability, T/C (second compound 1 µM, first compound 0.0949 µM): 5.77%; viability, T/C (second compound 1 µM, first compound 0.3 µM): 4.21%; viability, T/C (second compound 1 µM, first compound 0.949 µM): 5.37%; viability, T/C (second compound 1 µM, first compound 3 µM): 1.7%; viability, T/C (second compound 3.16 µM, first compound 0.00949 µM): 6.02%; viability, T/C (second compound 3.16 µM, first compound 0.03 µM): 7.42%; viability, T/C (second compound 3.16 µM, first compound 0.0949 µM): 10.8%; viability, T/C (second compound 3.16 µM, first compound 0.3 µM): 16.6%; viability, T/C (second compound 3.16 µM, first compound 0.949 µM): 4.54%; viability, T/C (second compound 3.16 µM, first compound 3 µM): 1.65%; viability, T/C (second compound 10 µM, first compound 0.00949 µM): 4.54%; viability, T/C (second compound 10 µM, first compound 0.03 µM): 4.5%; viability, T/C (second compound 10 µM, first compound 0.0949 µM): 6.08%; viability, T/C (second compound 10 µM, first compound 0.3 µM): 5.71%; viability, T/C (second compound 10 µM, first compound 0.949 µM): 1.68%; viability, T/C (second compound 10 µM, first compound 3 µM): 1.21%
